Legend:
[1] = target: 5-hydroxytryptamine receptor 5A (Homo sapiens) (UniProt P47898); conditions: Compound concentration 10.0 uM
[2] = target: NT-3 growth factor receptor (Homo sapiens) (UniProt Q16288); conditions: Compound concentration 1000.0 nM
[3] = target: Muscarinic acetylcholine receptor M4 (Homo sapiens) (UniProt P08173); conditions: Compound concentration 10.0 uM
[4] = target: Tyrosine-protein kinase receptor UFO (Homo sapiens) (UniProt P30530); conditions: Compound concentration 1000.0 nM
[5] = target: Calcium/calmodulin-dependent protein kinase type II subunit beta (Homo sapiens) (UniProt Q13554); conditions: Compound concentration 1000.0 nM
[6] = target: Protein kinase C theta type (Homo sapiens) (UniProt Q04759); conditions: Compound concentration 1000.0 nM
[7] = target: Cyclin-G-associated kinase (Homo sapiens) (UniProt O14976); conditions: Compound concentration 1000.0 nM
[8] = target: ALK tyrosine kinase receptor (Homo sapiens) (UniProt Q9UM73); conditions: Compound concentration 1000.0 nM
[9] = target: Homeodomain-interacting protein kinase 4 (Homo sapiens) (UniProt Q8NE63); conditions: Compound concentration 1000.0 nM
[10] = target: Protein kinase C epsilon type (Homo sapiens) (UniProt Q02156); conditions: Compound concentration 1000.0 nM
[11] = test system: ALK tyrosine kinase receptor (Homo sapiens), Q9UM73 [L1196M]; conditions: Compound concentration 1000.0 nM
[12] = target: Mitogen-activated protein kinase kinase kinase 6 (Homo sapiens) (UniProt O95382); conditions: Compound concentration 1000.0 nM
[13] = target: Cyclin-dependent kinase 11B (Homo sapiens) (UniProt P21127); conditions: Compound concentration 1000.0 nM
[14] = target: LIM domain kinase 1 (Homo sapiens) (UniProt P53667); conditions: Compound concentration 1000.0 nM
[15] = target: Mitogen-activated protein kinase 10 (Homo sapiens) (UniProt P53779); conditions: Compound concentration 1000.0 nM
[16] = target: Non-receptor tyrosine-protein kinase TYK2 (Homo sapiens) (UniProt P29597); conditions: Compound concentration 1000.0 nM
[17] = target: Serine/threonine-protein kinase Nek3 (Homo sapiens) (UniProt P51956); conditions: Compound concentration 1000.0 nM
[18] = target: SRSF protein kinase 2 (Homo sapiens) (UniProt P78362); conditions: Compound concentration 1000.0 nM
[19] = target: STE20/SPS1-related proline-alanine-rich protein kinase (Homo sapiens) (UniProt Q9UEW8); conditions: Compound concentration 1000.0 nM
[20] = target: Casein kinase I isoform delta (Homo sapiens) (UniProt P48730); conditions: Compound concentration 1000.0 nM
[21] = target: Serine/threonine-protein kinase 17A (Homo sapiens) (UniProt Q9UEE5); conditions: Compound concentration 1000.0 nM
[22] = target: Mitogen-activated protein kinase 13 (Homo sapiens) (UniProt O15264); conditions: Compound concentration 1000.0 nM
[23] = target: Focal adhesion kinase 1 (Homo sapiens) (UniProt Q05397); conditions: Compound concentration 1000.0 nM
[24] = test system: Receptor-type tyrosine-protein kinase FLT3 (Homo sapiens), P36888 [UNDEFINED MUTATION]; conditions: Compound concentration 1000.0 nM
[25] = target: Myosin light chain kinase (Homo sapiens) (UniProt Q32MK0); conditions: Compound concentration 1000.0 nM
[26] = target: 5-hydroxytryptamine receptor 1D (Homo sapiens) (UniProt P28221); conditions: Compound concentration 10.0 uM
[27] = target: Histamine H4 receptor (Homo sapiens) (UniProt Q9H3N8); conditions: Compound concentration 10.0 uM
[28] = target: Mitogen-activated protein kinase kinase kinase 5 (Homo sapiens) (UniProt Q99683); conditions: Compound concentration 1000.0 nM
[29] = target: Ankyrin repeat and protein kinase domain-containing protein 1 (Homo sapiens) (UniProt Q8NFD2); conditions: Compound concentration 1000.0 nM
[30] = target: Serine/threonine-protein kinase tousled-like 2 (Homo sapiens) (UniProt Q86UE8); conditions: Compound concentration 1000.0 nM
[31] = target: Bone morphogenetic protein receptor type-2 (Homo sapiens) (UniProt Q13873); conditions: Compound concentration 1000.0 nM
[32] = target: MAP/microtubule affinity-regulating kinase 4 (Homo sapiens) (UniProt Q96L34); conditions: Compound concentration 1000.0 nM
[33] = target: D(1A) dopamine receptor (Homo sapiens) (UniProt P21728); conditions: Compound concentration 10.0 uM
[34] = target: Calcium/calmodulin-dependent protein kinase type 1D (Homo sapiens) (UniProt Q8IU85); conditions: Compound concentration 1000.0 nM
[35] = target: Receptor-interacting serine/threonine-protein kinase 1 (Homo sapiens) (UniProt Q13546); conditions: Compound concentration 1000.0 nM
[36] = target: Ribosomal protein S6 kinase alpha-1 (Homo sapiens) (UniProt Q15418); conditions: Compound concentration 1000.0 nM
[37] = test system: Receptor-type tyrosine-protein kinase FLT3 (Homo sapiens), P36888 [K663Q]; conditions: Compound concentration 1000.0 nM
[38] = target: 1-phosphatidylinositol 3-phosphate 5-kinase (Homo sapiens) (UniProt Q9Y2I7); conditions: Compound concentration 1000.0 nM
[39] = test system: Receptor-type tyrosine-protein kinase FLT3 (Homo sapiens), P36888 [R834Q]; conditions: Compound concentration 1000.0 nM
[40] = target: Ribosomal protein S6 kinase alpha-5 (Homo sapiens) (UniProt O75582); conditions: Compound concentration 1000.0 nM
[41] = target: Activin receptor type-2B (Homo sapiens) (UniProt Q13705); conditions: Compound concentration 1000.0 nM
[42] = target: Serine/threonine-protein kinase PLK1 (Homo sapiens) (UniProt P53350); conditions: Compound concentration 1000.0 nM
[43] = target: Ephrin type-A receptor 5 (Homo sapiens) (UniProt P54756); conditions: Compound concentration 1000.0 nM
[44] = target: Citron Rho-interacting kinase (Homo sapiens) (UniProt O14578); conditions: Compound concentration 1000.0 nM
[45] = target: Serine/threonine-protein kinase MARK2 (Homo sapiens) (UniProt Q7KZI7); conditions: Compound concentration 1000.0 nM

Chain of Receptor-interacting serine/threonine-protein kinase 1 (Homo sapiens) (Q13546 whole entry): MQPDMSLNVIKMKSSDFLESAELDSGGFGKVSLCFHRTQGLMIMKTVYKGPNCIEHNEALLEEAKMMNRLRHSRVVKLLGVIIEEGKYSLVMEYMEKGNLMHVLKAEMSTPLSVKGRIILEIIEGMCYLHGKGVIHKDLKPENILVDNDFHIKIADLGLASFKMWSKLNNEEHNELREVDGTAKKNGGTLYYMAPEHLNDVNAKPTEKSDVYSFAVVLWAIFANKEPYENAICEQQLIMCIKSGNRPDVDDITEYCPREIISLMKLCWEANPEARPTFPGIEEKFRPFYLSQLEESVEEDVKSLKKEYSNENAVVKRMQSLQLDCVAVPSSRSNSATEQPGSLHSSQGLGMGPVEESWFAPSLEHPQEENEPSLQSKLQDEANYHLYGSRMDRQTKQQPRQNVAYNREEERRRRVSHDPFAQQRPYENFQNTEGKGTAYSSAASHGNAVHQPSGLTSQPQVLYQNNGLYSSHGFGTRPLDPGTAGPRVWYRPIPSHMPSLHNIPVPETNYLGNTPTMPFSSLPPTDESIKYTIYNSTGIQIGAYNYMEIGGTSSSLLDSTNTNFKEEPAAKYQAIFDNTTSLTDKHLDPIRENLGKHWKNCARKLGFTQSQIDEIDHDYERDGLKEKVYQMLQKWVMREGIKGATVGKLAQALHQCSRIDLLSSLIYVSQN
Chain of Ephrin type-A receptor 5 (Homo sapiens) (P54756 whole entry): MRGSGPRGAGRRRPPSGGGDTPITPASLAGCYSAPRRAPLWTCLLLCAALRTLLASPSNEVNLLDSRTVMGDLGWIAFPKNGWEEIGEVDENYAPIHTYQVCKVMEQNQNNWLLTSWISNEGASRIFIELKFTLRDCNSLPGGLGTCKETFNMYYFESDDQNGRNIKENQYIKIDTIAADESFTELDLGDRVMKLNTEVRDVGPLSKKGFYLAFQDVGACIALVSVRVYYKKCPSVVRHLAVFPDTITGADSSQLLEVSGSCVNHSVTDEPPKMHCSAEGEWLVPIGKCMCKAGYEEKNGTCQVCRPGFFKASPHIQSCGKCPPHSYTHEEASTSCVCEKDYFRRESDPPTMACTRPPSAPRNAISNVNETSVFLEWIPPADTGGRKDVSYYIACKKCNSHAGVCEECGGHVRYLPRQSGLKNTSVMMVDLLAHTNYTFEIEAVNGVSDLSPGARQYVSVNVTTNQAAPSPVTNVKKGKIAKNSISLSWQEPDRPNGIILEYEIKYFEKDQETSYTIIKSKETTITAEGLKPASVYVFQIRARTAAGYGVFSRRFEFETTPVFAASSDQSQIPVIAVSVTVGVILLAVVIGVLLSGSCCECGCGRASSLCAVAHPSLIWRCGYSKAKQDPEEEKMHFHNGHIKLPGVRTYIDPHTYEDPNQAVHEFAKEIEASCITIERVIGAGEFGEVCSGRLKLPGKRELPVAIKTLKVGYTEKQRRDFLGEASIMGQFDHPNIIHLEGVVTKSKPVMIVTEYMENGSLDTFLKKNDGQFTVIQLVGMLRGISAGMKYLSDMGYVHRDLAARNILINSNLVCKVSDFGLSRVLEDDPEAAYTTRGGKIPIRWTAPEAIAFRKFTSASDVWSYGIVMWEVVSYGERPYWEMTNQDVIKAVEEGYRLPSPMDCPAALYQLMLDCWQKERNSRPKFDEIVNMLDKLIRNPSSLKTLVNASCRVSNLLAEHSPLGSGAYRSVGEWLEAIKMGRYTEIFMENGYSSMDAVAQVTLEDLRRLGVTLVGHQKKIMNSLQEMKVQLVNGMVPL
Chain of Protein kinase C theta type (Homo sapiens) (Q04759 whole entry, looked up): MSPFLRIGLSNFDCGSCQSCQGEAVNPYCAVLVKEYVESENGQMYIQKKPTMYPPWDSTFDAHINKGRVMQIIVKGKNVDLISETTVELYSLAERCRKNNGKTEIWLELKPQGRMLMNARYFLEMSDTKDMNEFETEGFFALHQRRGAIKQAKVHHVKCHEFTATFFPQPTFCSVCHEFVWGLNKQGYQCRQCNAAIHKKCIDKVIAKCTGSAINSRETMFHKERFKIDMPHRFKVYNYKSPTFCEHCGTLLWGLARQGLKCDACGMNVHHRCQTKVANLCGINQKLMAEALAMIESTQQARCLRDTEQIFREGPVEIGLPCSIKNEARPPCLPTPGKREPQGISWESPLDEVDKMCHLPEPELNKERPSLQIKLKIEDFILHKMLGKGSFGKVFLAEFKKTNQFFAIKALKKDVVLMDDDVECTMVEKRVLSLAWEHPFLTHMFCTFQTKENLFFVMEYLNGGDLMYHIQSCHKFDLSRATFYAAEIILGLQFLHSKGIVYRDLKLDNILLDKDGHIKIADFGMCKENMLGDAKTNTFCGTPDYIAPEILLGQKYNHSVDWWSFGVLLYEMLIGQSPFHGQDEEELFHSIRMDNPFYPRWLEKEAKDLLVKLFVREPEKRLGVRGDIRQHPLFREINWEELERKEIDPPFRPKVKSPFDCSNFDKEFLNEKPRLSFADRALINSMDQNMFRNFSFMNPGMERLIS
Chain of Serine/threonine-protein kinase Nek3 (Homo sapiens) (P51956 whole entry): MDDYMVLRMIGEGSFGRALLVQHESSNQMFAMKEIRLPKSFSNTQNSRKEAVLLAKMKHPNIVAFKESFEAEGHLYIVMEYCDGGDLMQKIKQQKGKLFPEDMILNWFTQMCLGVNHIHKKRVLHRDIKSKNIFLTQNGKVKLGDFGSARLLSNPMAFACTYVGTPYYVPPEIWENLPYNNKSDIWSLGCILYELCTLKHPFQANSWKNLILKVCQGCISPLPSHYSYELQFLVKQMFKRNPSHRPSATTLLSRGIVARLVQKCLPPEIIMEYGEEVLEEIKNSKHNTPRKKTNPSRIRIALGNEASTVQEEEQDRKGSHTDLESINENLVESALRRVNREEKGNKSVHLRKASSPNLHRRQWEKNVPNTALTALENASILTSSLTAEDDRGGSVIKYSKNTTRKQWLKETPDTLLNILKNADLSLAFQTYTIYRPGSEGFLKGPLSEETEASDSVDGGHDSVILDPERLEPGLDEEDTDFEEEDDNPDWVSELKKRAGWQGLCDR
Chain of Cyclin-dependent kinase 11B (Homo sapiens) (P21127 whole entry, the tested form may be a part): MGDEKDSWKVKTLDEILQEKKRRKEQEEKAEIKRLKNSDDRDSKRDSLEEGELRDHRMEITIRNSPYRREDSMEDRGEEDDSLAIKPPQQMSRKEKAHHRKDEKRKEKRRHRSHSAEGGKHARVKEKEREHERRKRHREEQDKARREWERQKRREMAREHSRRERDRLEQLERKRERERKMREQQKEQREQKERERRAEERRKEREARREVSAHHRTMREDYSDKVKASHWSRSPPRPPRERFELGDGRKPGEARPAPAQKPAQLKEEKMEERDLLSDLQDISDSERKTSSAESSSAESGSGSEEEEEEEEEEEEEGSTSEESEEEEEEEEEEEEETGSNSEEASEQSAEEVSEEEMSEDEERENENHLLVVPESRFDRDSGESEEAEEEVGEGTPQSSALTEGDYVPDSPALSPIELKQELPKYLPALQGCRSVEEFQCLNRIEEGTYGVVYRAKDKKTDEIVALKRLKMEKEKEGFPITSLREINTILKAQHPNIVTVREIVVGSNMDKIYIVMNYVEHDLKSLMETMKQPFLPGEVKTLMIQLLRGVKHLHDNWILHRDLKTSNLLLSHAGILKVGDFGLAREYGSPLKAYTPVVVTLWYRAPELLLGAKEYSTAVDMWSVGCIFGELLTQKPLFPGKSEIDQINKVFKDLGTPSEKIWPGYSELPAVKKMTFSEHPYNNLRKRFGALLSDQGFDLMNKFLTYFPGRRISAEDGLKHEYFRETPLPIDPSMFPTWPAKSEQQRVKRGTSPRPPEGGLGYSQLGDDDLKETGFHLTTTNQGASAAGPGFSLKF
Chain of 5-hydroxytryptamine receptor 1D (Homo sapiens) (P28221 whole entry): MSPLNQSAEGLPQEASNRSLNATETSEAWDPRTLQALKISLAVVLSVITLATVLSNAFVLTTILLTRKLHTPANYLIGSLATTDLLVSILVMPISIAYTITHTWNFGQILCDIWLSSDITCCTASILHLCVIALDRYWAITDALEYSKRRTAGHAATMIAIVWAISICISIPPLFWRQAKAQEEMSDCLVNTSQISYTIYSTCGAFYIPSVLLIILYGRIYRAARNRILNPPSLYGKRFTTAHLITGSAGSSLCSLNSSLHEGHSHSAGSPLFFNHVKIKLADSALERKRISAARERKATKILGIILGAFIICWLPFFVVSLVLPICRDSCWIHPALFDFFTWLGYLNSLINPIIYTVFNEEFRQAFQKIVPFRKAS
Chain of Mitogen-activated protein kinase 13 (Homo sapiens) (O15264 whole entry): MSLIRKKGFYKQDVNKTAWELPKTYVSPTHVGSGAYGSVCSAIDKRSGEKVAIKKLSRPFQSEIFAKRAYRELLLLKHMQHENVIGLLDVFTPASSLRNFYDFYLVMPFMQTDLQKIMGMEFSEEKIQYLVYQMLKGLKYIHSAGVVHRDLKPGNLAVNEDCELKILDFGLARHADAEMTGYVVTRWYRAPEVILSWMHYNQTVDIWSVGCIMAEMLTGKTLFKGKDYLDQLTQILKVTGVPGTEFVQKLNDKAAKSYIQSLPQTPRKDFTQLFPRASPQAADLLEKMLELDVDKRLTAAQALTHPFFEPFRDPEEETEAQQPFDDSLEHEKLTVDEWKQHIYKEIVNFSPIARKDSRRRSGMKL
Chain of Casein kinase I isoform delta (Homo sapiens) (P48730 whole entry, looked up, canonical isoform): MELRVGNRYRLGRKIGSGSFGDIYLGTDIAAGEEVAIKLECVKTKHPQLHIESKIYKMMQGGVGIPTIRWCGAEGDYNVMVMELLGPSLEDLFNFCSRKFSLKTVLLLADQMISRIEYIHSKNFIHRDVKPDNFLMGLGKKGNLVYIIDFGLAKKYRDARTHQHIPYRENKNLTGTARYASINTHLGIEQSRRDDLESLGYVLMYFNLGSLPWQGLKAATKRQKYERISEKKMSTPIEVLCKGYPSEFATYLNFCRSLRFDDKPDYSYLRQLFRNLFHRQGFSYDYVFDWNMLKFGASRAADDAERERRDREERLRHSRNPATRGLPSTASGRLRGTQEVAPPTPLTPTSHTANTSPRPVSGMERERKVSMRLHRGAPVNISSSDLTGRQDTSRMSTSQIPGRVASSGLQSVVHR

CN([C@@H]1CCc2c(CC(=O)O)c3ccccc3n2C1)S(=O)(=O)c1ccc(F)cc1 [MK-7246]
inactive: inhibition [1] -1.36% | residual activity [2] 100% | inhibition [3] 24.4% | residual activity [4] 100% | residual activity [5] 99% | residual activity [6] 83% | residual activity [7] 100% | residual activity [8] 78% | residual activity [9] 100% | residual activity [10] 94% | residual activity [11] 74% | residual activity [12] 80% | residual activity [13] 100% | residual activity [14] 100% | residual activity [15] 100% | residual activity [16] 100% | residual activity [17] 93% | residual activity [18] 100% | residual activity [19] 100% | residual activity [20] 100% | residual activity [21] 100% | residual activity [22] 91% | residual activity [23] 100% | residual activity [24] 95% | residual activity [25] 95% | inhibition [26] -6.38% | inhibition [27] 25.9% | residual activity [28] 100% | residual activity [29] 100% | residual activity [30] 100% | residual activity [31] 100% | residual activity [32] 100% | inhibition [33] 12.3% | residual activity [34] 100% | residual activity [35] 100% | residual activity [36] 100% | residual activity [37] 100% | residual activity [38] 100% | residual activity [39] 100% | residual activity [40] 95% | residual activity [41] 98% | residual activity [42] 98% | residual activity [43] 99% | residual activity [44] 100% | residual activity [45] 100%

CN([C@@H]1CCc2c(CC(=O)O)c3cc(S(C)(=O)=O)ccc3n2C1)S(=O)(=O)c1ccc(F)cc1
inactive: inhibition [1] -1.56% | residual activity [2] 100% | inhibition [3] -1.13% | residual activity [4] 100% | residual activity [5] 100% | residual activity [6] 78% | residual activity [7] 93% | residual activity [8] 80% | residual activity [9] 100% | residual activity [10] 87% | residual activity [11] 89% | residual activity [12] 89% | residual activity [13] 100% | residual activity [14] 100% | residual activity [15] 100% | residual activity [16] 100% | residual activity [17] 59% | residual activity [18] 100% | residual activity [19] 86% | residual activity [20] 100% | residual activity [21] 100% | residual activity [22] 68% | residual activity [23] 99% | residual activity [24] 91% | residual activity [25] 100% | inhibition [26] 0.539% | inhibition [27] 16% | residual activity [28] 90% | residual activity [29] 96% | residual activity [30] 100% | residual activity [31] 100% | residual activity [32] 100% | inhibition [33] -2.96% | residual activity [34] 99% | residual activity [35] 93% | residual activity [36] 100% | residual activity [37] 100% | residual activity [38] 97% | residual activity [39] 100% | residual activity [40] 85% | residual activity [41] 100% | residual activity [42] 93% | residual activity [43] 78% | residual activity [44] 96% | residual activity [45] 100%

Source: ChEMBL document CHEMBL4507290 (2021)
